Molecular target: human TPH1 (Homo sapiens (Human), UniProt P17752)
Test: Biochemical in vitro assay using fluorescence readout (TPH1 inhibition)
Settings: human TPH1, fluorescence readout

Sequence of human TPH1 (P17752 whole entry): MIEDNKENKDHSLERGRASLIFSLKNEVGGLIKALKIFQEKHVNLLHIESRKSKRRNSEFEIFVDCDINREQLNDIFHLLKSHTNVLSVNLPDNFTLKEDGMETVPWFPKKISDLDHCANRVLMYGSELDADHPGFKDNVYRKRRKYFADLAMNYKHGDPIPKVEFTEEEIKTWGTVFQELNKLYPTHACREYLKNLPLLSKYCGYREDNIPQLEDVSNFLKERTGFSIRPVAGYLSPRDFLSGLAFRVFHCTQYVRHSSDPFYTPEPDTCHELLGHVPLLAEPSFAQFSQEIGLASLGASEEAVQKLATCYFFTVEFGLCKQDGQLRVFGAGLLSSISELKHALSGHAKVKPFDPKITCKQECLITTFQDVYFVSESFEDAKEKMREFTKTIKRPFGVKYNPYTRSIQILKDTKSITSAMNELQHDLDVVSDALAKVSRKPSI

SMILES | IC50
O=C(COc1ccc(C(F)(F)F)nc1Cl)N1CCc2nc3sccn3c2C1c1ncc(C2CC2)cc1F (stereo not drawn) [Example 6.7.1, 2-((2-chloro-6-(trifluoromethyl)pyridin-3-yl)oxy)-1-(5-(5-cyclopropyl-3-fluoropyridin-2-yl)-7,8-dihydrothiazolo-[2′,3′:2,3]imidazo[4,5-c]pyridin-6(5H)-yl)ethanone] | 11 nM
N#Cc1ccc(OCC(=O)N2CCc3nc4sccn4c3C2c2ncc(C3CC3)cc2F)c(Cl)n1 (stereo not drawn) [Example 6.7.2, 6-chloro-5-(2-(5-(5-cyclopropyl-3-fluoropyridin-2-yl)-7,8-dihydrothiazolo[2′,3′:2,3]imidazo[4,5-c]pyridin-6(5H)-yl)-2-oxoethoxy)picolinonitrile] | 17 nM
O=C(COc1ccc(NS(=O)(=O)C2CC2)nc1Cl)N1CCc2nc3sccn3c2C1c1sccc1F (stereo not drawn) [Example 6.8.1, N-(6-chloro-5-(2-(5-(3-fluorothiophen-2-yl)-7,8-dihydro-thiazolo[2′,3′:2,3]imidazo[4,5-c]pyridin-6(5H)-yl)-2-oxoethoxy)pyridin-2-yl)cyclopropanesulfonamide] | 15 nM
CN(C)C(=O)c1ccc(OCC(=O)N2CCc3nc4sccn4c3C2c2sccc2F)c(Cl)n1 (stereo not drawn) [Example 6.8.2, 6-chloro-5-(2-(5-(3-fluorothiophen-2-yl)-7,8-dihydro-thiazolo[2′,3′:2,3]imidazo[4,5-c]pyridin-6(5H)-yl)-2-oxoethoxy)-N,N-dimethylpicolinamide] | 5 nM
CNC(=O)c1ccc(OCC(=O)N2CCc3nc4sccn4c3C2c2sccc2F)c(Cl)n1 (stereo not drawn) [Example 6.8.3, 6-chloro-5-(2-(5-(3-fluorothiophen-2-yl)-7,8-dihydro-thiazolo[2′,3′:2,3]imidazo[4,5-c]pyridin-6(5H)-yl)-2-oxoethoxy)-N-methylpicolinamide] | 9 nM
CS(=O)(=O)Nc1ccc(OCC(=O)N2CCc3nc4sccn4c3C2c2sccc2F)c(Cl)n1 (stereo not drawn) [Example 6.8.4, N-(6-chloro-5-(2-(5-(3-fluorothiophen-2-yl)-7,8-dihydrothiazolo[2′,3′:2,3]imidazo[4,5-c]pyridin-6(5H)-yl)-2-oxoethoxy)pyridin-2-yl)methanesulfonamide] | 7 nM
CS(=O)(=O)Nc1ccc(OCC(=O)N2CCc3nc4sccn4c3C2c2sccc2F)c(Cl)c1 (stereo not drawn) [Example 6.8.5, N-(3-chloro-4-(2-(5-(3-fluorothiophen-2-yl)-7,8-dihydro-thiazolo[2′,3′:2,3]imidazo[4,5-c]pyridin-6(5H)-yl)-2-oxoethoxy)phenyl)methanesulfonamide] | 9 nM
CN(C)C(=O)c1cc(F)c(C2c3c(nc4sccn34)CCN2C(=O)COc2ccc(NS(C)(=O)=O)cc2Cl)s1 (stereo not drawn) [Example 6.9.1, 5-(6-(2-(2-chloro-4-(methylsulfonamido)phenoxy)-acetyl)-5,6,7,8-tetrahydrothiazolo[2′,3′:2,3]imidazo[4,5-c]pyridin-5-yl)-4-fluoro-N,N-dimethylthiophene-2-carboxamide] | 2 nM
CN(C)C(=O)c1ccc(OCC(=O)N2CCc3nc4sccn4c3C2c2sc(C(=O)N(C)C)cc2F)c(Cl)n1 (stereo not drawn) [Example 6.9.2, 6-chloro-5-(2-(5-(5-(dimethylcarbamoyl)-3-fluoro-thiophen-2-yl)-7,8-dihydrothiazolo[2′,3′:2,3]imidazo-[4,5-c]pyridin-6(5H)-yl)-2-oxoethoxy)-N,N-dimethylpicolinamide] | 5 nM
Cc1ccc(C2c3c(nc4sccn34)CCN2C(=O)COc2ccc(Cl)cc2C)c(F)c1 (stereo not drawn) [Example 6.10.1, 2-(4-chloro-2-methylphenoxy)-1-(5-(2-fluoro-4-methyl-phenyl)-7,8-dihydrothiazolo[2′,3′:2,3]imidazo[4,5-c]-pyridin-6(5H)-yl)ethanone] | 5 nM
CCc1ncccc1OCC(=O)N1CCc2nc3sccn3c2C1c1ccc(C)cc1F (stereo not drawn) [Example 6.10.2, 2-((2-ethylpyridin-3-yl)oxy)-1-(5-(2-fluoro-4-methyl-phenyl)-7,8-dihydrothiazolo[2′,3′:2,3]imidazo[4,5-c]-pyridin-6(5H)-yl)ethanone] | 7 nM
Cc1ccc(C2c3c(nc4sccn34)CCN2C(=O)COc2cccnc2Cl)c(F)c1 (stereo not drawn) [Example 6.10.3, 2-((2-chloropyridin-3-yl)oxy)-1-(5-(2-fluoro-4-methyl-phenyl)-7,8-dihydrothiazolo[2′,3′:2,3]imidazo[4,5-c]-pyridin-6(5H)-yl)ethanone] | 14 nM
CCc1cc(F)ccc1OCC(=O)N1CCc2nc3sccn3c2C1c1ccc(C)cc1F (stereo not drawn) [Example 6.10.4, 2-(2-ethyl-4-fluorophenoxy)-1-(5-(2-fluoro-4-methyl-phenyl)-7,8-dihydrothiazolo[2′,3′:2,3]imidazo[4,5-c]-pyridin-6(5H)-yl)ethanone] | 6 nM
CCc1nc(C)ccc1OCC(=O)N1CCc2nc3sccn3c2C1c1ccc(C(F)(F)F)cc1F (stereo not drawn) [Example 6.11.1, 2-((2-ethyl-6-methylpyridin-3-yl)oxy)-1-(5-(2-fluoro-4-(trifluoromethyl)phenyl)-7,8-dihydrothiazolo-[2′,3′:2,3]imidazo[4,5-c]pyridin-6(5H)-yl)ethanone] | 10 nM
Cc1ccc(OCC(=O)N2CCc3nc4sccn4c3C2c2nc3ccccc3s2)cc1 (stereo not drawn) [Example 6.12.1, 1-(5-(benzo[d]thiazol-2-yl)-7,8-dihydrothiazolo-[2′,3′:2,3]imidazo[4,5-c]pyridin-6(5H)-yl)-2-(p-tolyloxy)ethanone] | 26 nM
Cc1ccccc1OCC(=O)N1CCc2nc3sccn3c2C1c1nc2ccccc2s1 (stereo not drawn) [Example 6.12.2, 1-(5-(benzo[d]thiazol-2-yl)-7,8-dihydrothiazolo-[2′,3′:2,3]imidazo[4,5-c]pyridin-6(5H)-yl)-2-(o-tolyloxy)-ethanone] | 115 nM
O=C(COc1ccc(Cl)cc1Cl)N1CCc2nc3sccn3c2C1c1nc2ccccc2s1 (stereo not drawn) [Example 6.12.3, 1-(5-(benzo[d]thiazol-2-yl)-7,8-dihydrothiazolo-[2′,3′:2,3]imidazo[4,5-c]pyridin-6(5H)-yl)-2-(2,4-dichlorophenoxy)ethanone] | 20 nM
Cc1cc(Cl)ccc1OCC(=O)N1CCc2nc3sccn3c2C1c1nc2ccccc2s1 (stereo not drawn) [Example 6.12.4, 1-(5-(benzo[d]thiazol-2-yl)-7,8-dihydrothiazolo-[2′,3′:2,3]imidazo[4,5-c]pyridin-6(5H)-yl)-2-(4-chloro-2-methylphenoxy)ethanone] | 36 nM
O=C(COc1cccc(C(F)(F)F)c1Cl)N1CCc2nc3sccn3c2C1c1nc2ccccc2s1 (stereo not drawn) [Example 6.12.5, 1-(5-(benzo[d]thiazol-2-yl)-7,8-dihydrothiazolo-[2′,3′:2,3]imidazo[4,5-c]pyridin-6(5H)-yl)-2-(2-chloro-3-(trifluoromethyl)phenoxy)ethanone] | 28 nM
O=C(COc1cccnc1Cl)N1CCc2nc3sccn3c2C1c1nc2ccccc2s1 (stereo not drawn) [Example 6.12.6, 1-(5-(benzo[d]thiazol-2-yl)-7,8-dihydrothiazolo-[2′,3′:2,3]imidazo[4,5-c]pyridin-6(5H)-yl)-2-((2-chloropyridin-3-yl)oxy)ethanone] | 101 nM
Cn1nc(OCC(=O)N2CCc3nc4sccn4c3C2c2nc3ccccc3s2)c(Cl)c1C(F)(F)F (stereo not drawn) [Example 6.12.7, 1-(5-(benzo[d]thiazol-2-yl)-7,8-dihydrothiazolo-[2′,3′:2,3]imidazo[4,5-c]pyridin-6(5H)-yl)-2-((4-chloro-1-methyl-5-(trifluoromethyl)-1H-pyrazol-3-yl)-oxy)ethanone] | 62 nM

From US9765092B2, “Tricyclic piperidine compounds” (ACTELION PHARMACEUTICALS LTD, priority 2013, dated 2017)
